# Experimental data taken from US20080146555A1, “Uses of Kinase Inhibitors and Compositions Thereof” (GPC Biotech, Inc, priority 2004, published 2008).
# Columns and labels:
# Assay type in all cases: cell-based
# HCT-116 cells [1] = assay: Calcein AM viability assay, HCT-116; conditions: Homo sapiens
# Method: (§1) The potency of the subject kinase inhibitors, as measured by loss of cellular viability, was determined with the Calcein AM assay (Molecular Probes). Calcein AM is a substrate of intracellular esterases, which is cleaved only in viable cells to generate a fluorescent product that can be quantified with a fluorescent plate reader. The fluorescent signal is proportional to the number of viable cells, and thus loss of signal in response to the exposure of cells to the subject kinase inhibitors correlates with a loss of viability. This assay not only distinguishes cell cycle arrest, in which cells may still by viable, from loss of viability, and is thus well suited for the evaluation of the subject kinase inhibitors. A compound that is a potent cytotoxic agent may cause significant loss of cell viability in such an assay.
# (§2) Cellular IC50's were determined in the human colorectal carcinoma cell line, HCT-116, and the normal human fibroblast, IMR90. Protein adjusted IC50's were also determined in HCT-116. Results of such viability assays are presented in Table 2 (HCT-116 (viability/protein adjusted) and IMR-90). IC50's (μM, non-protein adjusted) for the viability assay against HCT-116 cells are shown for further compounds of the invention in Table 4.
# (§3) HCT-116 or IMR90 cells were recovered from sub-confluent plates by trypsinization and 1,000 or 4,000 cells, respectively, were plated in 24-well dishes and incubated overnight at 37° C., 5% CO2. HCT-116 cells were cultured in RPMI-1640, 10% FCS, and IMR90 cells were cultured in Minimum Essential Medium-alpha, 10% FCS. After overnight incubation to allow adherence, the media was aspirated from each well and replaced with media containing a test compound at a concentration from 0 to 250 nM, spanning a total of 7 doses. The plates were returned to the incubator and cultured for an additional 72 hours (3 days). […] After 72-hours incubation with the test compound, the cells were washed twice with 1×PBS, taking special care to remove all residual buffer.
# (§4) A 5 μM Calcein AM solution was prepared by dissolving a 50 μg aliquot of Calcein (Molecular Probes catalog #C3100) in 50 μl DMSO. After the Calcein had completely dissolved (10 minutes at room temperature), it was diluted into 10 ml PBS. Calcein/PBS (0.5 ml) was added to each well. The plates were incubated for 75 minutes at 37° C. (protected from light) and the fluorescent signal was read on a fluorescent plate reader (excitation 485/20 and emission 530/25).
# [2] = system: normal human fibroblast, IMR90; assay: Calcein AM viability assay, IMR90; conditions: IMR-90, Calcein AM, 72 h
# Method: as §1, §2, §3, §4
# HCT-116 cells [3] = assay: Clonogenic survival assay with HCT-116 cells; conditions: Homo sapiens, 24 h exposure, read-out: HCT-116 IC50 Clonogenic 24 h
# Method: This assay was used to determine the concentration of a compound that results in irreversible loss of viability after a specified period of exposure. Essentially, cells are exposed to compound for a period of […], and are then transferred to compound-free growth medium. After continued incubation in the compound-free medium for a number of days, the number of colonies recovered is counted as an estimate of the number of surviving cells.
# Media (RPMI-1640, 10% FCS, pen/strep) was pre-warmed to 37° C. in a water bath. Cells were incubated and grown at 37° C., 5% CO2. Cells were recovered by trypsinization from sub-confluent plates and counted using a hemocytometer. 1×10^4 cells were plated in 25 mls of media in a 15 cm tissue culture dish. […] were set up for each test compound, and were incubated overnight at 37° C. The compound was diluted into media at 7 concentrations and the media on the cells was replaced with that containing the test compound. Two plates were set up for each concentration of the compound to be tested, as well as two control plates without compound. Plates were incubated as above for […], media was removed and replaced with fresh media, and the plates were incubated an additional 7 days and washed with PBS. Colonies were stained with crystal violet solution (0.4% crystal violet, 20% ethanol) for 5 minutes, washed twice with distilled water, and counted.
# [4] = HCT-116, non-protein adjusted, Table 4, read-out: HCT-116 viability IC50
# [5] = HCT-116, 72 h, Calcein AM, 72 h, read-out: HCT-116 IC50 Viability
# [6] = HCT-116, plus 1 mg/ml alpha acidic glycoprotein and 45 mg/ml human serum albumin, read-out: HCT-116 IC50 Protein adjusted
SMILES,IC50 (HCT-116 cells [1]; [4]) [nM],further results
Cc1noc(COc2ccc(-c3[nH]nc4c3C(=O)c3c(NC(=O)NN5CCOCC5)cccc3-4)cc2)n1 [Compound A35],< 100,
O=C(Nc1cccc2c1C(=O)c1c-2n[nH]c1-c1ccc(OCC(=O)N2CCOCC2)cc1)NN1CCOCC1 [Compound A36],< 10,
CC(C)OC(=O)CN1CCN(NC(=O)Nc2cccc3c2C(=O)c2c-3n[nH]c2-c2ccc(OCCN3CCCC3)cc2)CC1 [Compound A40],< 100,
CN(C)C(=O)CN1CCN(NC(=O)Nc2cccc3c2C(=O)c2c-3n[nH]c2-c2ccc(OCCN3CCCC3)cc2)CC1 [Compound A41],< 100,
CN1CCN(NC(=O)Nc2cccc3c2C(=O)c2c-3n[nH]c2-c2ccc(OCC(=O)N3CCCC3)cc2)CC1 [Compound A44],< 100,
Cc1noc(COc2ccc(-c3[nH]nc4c3C(=O)c3c(NC(=O)NN5CCN(C)CC5)cccc3-4)cc2)n1 [Compound A45],< 10,
O=C(Nc1cccc2c1C(=O)c1c-2n[nH]c1-c1ccc(OCC(=O)N2CCCC2)cc1)NN1CCOCC1 [Compound A46],< 100,
O=C(Nc1cccc2c1C(=O)c1c(-c3ccc(CN4CCOCC4)cc3)n[nH]c1-2)NN1CCOCC1 [Compound A47],< 10,
CN1CCN(Cc2ccc(-c3n[nH]c4c3C(=O)c3c(NC(=O)NN5CCOCC5)cccc3-4)cc2)CC1 [Compound A49],< 100,
O=C(Nc1cccc2c1C(=O)c1c(-c3ccc(CN4CCCC4)cc3)n[nH]c1-2)NN1CCOCC1 [Compound A51],< 100,
O=C(Nc1cccc2c1C(=O)c1c-2n[nH]c1-c1ccc(S(=O)(=O)N2CCNCC2)cc1)NN1CCOCC1 [Compound A56],< 100,
CC(C)N1CCN(S(=O)(=O)c2ccc(-c3[nH]nc4c3C(=O)c3c(NC(=O)NN5CCOCC5)cccc3-4)cc2)CC1 [Compound A57],< 100,
CCOC(=O)COc1ccc(-c2[nH]nc3c2C(=O)c2c(NC(=O)NN4CCOCC4)cccc2-3)cc1 [Compound A65],< 100,
O=C(O)COc1ccc(-c2n[nH]c3c2C(=O)c2c(NC(=O)NN4CCOCC4)cccc2-3)cc1 [Compound A68],< 1000,
O=C(Nc1cccc2c1C(=O)c1c(-c3ccc(OCc4nnn[nH]4)cc3)n[nH]c1-2)NN1CCOCC1 [Compound A74],> 250,
CN1CCN(C(=O)COc2ccc(-c3n[nH]c4c3C(=O)c3c(NC(=O)NN5CCOCC5)cccc3-4)cc2)CC1 [Compound A77],< 100,
CCN1CCN(C(=O)COc2ccc(-c3n[nH]c4c3C(=O)c3c(NC(=O)NN5CCOCC5)cccc3-4)cc2)CC1 [Compound A78],< 10,
O=C(Nc1cccc2c1C(=O)c1c(-c3ccc(OCC(=O)N4CCN(Cc5ccccc5)CC4)cc3)n[nH]c1-2)NN1CCOCC1 [Compound A79],< 100,
O=C(Nc1cccc2c1C(=O)c1c(-c3ccc(OCC(=O)N4CCN(c5ccccc5)CC4)cc3)n[nH]c1-2)NN1CCOCC1 [Compound A80],< 100,
O=C(Nc1cccc2c1C(=O)c1c(-c3ccc(OCC(=O)N4CCN(c5ccccn5)CC4)cc3)n[nH]c1-2)NN1CCOCC1 [Compound A81],< 100,
O=C(Nc1cccc2c1C(=O)c1c(-c3ccc(CN4CCN(c5ccccn5)CC4)cc3)n[nH]c1-2)NN1CCOCC1 [Compound A82],< 100,
CN1CCN(NC(=O)Nc2cccc3c2C(=O)c2c-3n[nH]c2-c2ccc(OCCN3CCC[C@H]3CO)cc2)CC1 [Compound M],,IC50 [2]: < 100 nM; IC50 (HCT-116 cells [1]; [5]): < 100 nM; IC50 (HCT-116 cells [1]; [6]): < 1000 nM; IC50 (HCT-116 cells [3]): < 100 nM
O=C(Nc1cccc2c1C(=O)c1c-2n[nH]c1-c1ccc(OP(=O)(O)O)cc1)NN1CCOCC1 [J],,"IC50 [2]: < 100 nM; IC50 (HCT-116 cells [1]; HCT-116, Calcein AM, 72 h, read-out: HCT-116 IC50 Viability): < 1000 nM"
CN1CCN(NC(=O)Nc2cccc3c2C(=O)c2c-3n[nH]c2-c2ccc(OCCN(CCO)CCO)cc2)CC1 [N],,IC50 [2]: > 100 nM; IC50 (HCT-116 cells [1]; [5]): < 1000 nM; IC50 (HCT-116 cells [1]; [6]): < 1000 nM
CN1CCN(NC(=O)Nc2cccc3c2C(=O)c2c-3n[nH]c2-c2ccc(OCCN3CC[C@H](O)C3)cc2)CC1 [O],,IC50 [2]: < 100 nM; IC50 (HCT-116 cells [1]; [5]): < 100 nM; IC50 (HCT-116 cells [1]; [6]): < 1000 nM; IC50 (HCT-116 cells [3]): < 10 nM
Cc1cc(-c2[nH]nc3c2C(=O)c2c(NC(=O)NN4CCN(C)CC4)cccc2-3)ccc1OCCN1CCCC1 [P],,IC50 [2]: < 100 nM; IC50 (HCT-116 cells [1]; [5]): < 10 nM; IC50 (HCT-116 cells [3]): < 100 nM

# Now from value to compound, other results behind:
IC50 (HCT-116 cells [1]; [4]) [nM],SMILES,further results
< 1000,O=C(Nc1cccc2c1C(=O)c1c(-c3ccc(CNC(CO)CO)cc3)n[nH]c1-2)NN1CCOCC1 [Compound B1],
< 100,O=C(Nc1cccc2c1C(=O)c1c(-c3ccc(CN(CCO)CCO)cc3)n[nH]c1-2)NN1CCOCC1 [Compound B2],
< 100,O=C(Nc1cccc2c1C(=O)c1c(-c3ccc(CN4CCN(CCO)CC4)cc3)n[nH]c1-2)NN1CCOCC1 [Compound B3],
< 100,O=C(Nc1cccc2c1C(=O)c1c(-c3ccc(CNCCOCCO)cc3)n[nH]c1-2)NN1CCOCC1 [Compound B4],
< 100,O=C(Nc1cccc2c1C(=O)c1c(-c3ccc(CN4CCC(O)CC4)cc3)n[nH]c1-2)NN1CCOCC1 [Compound B5],
< 100,O=C(Nc1cccc2c1C(=O)c1c(-c3ccc(CN4CCC[C@H]4CO)cc3)n[nH]c1-2)NN1CCOCC1 [Compound B6],
< 1000,O=C(Nc1cccc2c1C(=O)c1c(-c3ccc(CN4CCN(c5cccc(C(F)(F)F)c5)CC4)cc3)n[nH]c1-2)NN1CCOCC1 [Compound B7],
< 100,O=C(Nc1cccc2c1C(=O)c1c(-c3ccc(CN4CC[C@@H](O)C4)cc3)n[nH]c1-2)NN1CCOCC1 [Compound B8],
< 100,CCOC(=O)C1CCN(Cc2ccc(-c3n[nH]c4c3C(=O)c3c(NC(=O)NN5CCOCC5)cccc3-4)cc2)CC1 [Compound B9],
< 100,O=C(Nc1cccc2c1C(=O)c1c(-c3ccc(CNCCO)cc3)n[nH]c1-2)NN1CCOCC1 [Compound B10],
< 1000,O=C(Nc1cccc2c1C(=O)c1c(-c3ccc(CNCC(O)CO)cc3)n[nH]c1-2)NN1CCOCC1 (stereo not shown) [Compound B11],
< 100,O=C(Nc1cccc2c1C(=O)c1c(-c3ccc(CNCc4cccnc4)cc3)n[nH]c1-2)NN1CCOCC1 [Compound B12],
< 10,O=C(Nc1cccc2c1C(=O)c1c(-c3ccc(CNCc4ccccn4)cc3)n[nH]c1-2)NN1CCOCC1 [Compound B13],
< 10,O=C(Nc1cccc2c1C(=O)c1c-2n[nH]c1-c1ccc(CN2CCN(c3ccncc3)CC2)cc1)NN1CCOCC1 [Compound B14],
< 10,O=C(Nc1cccc2c1C(=O)c1c-2n[nH]c1-c1ccc(CN2CCN(c3ncccn3)CC2)cc1)NN1CCOCC1 [Compound B15],
< 10,CC(C)N1CCN(Cc2ccc(-c3[nH]nc4c3C(=O)c3c(NC(=O)NN5CCOCC5)cccc3-4)cc2)CC1 [Compound B17],
< 100,COCCN1CCN(C(=O)COc2ccc(-c3[nH]nc4c3C(=O)c3c(NC(=O)NN5CCOCC5)cccc3-4)cc2)CC1 [Compound C1],
< 250,O=C(Nc1cccc2c1C(=O)c1c-2n[nH]c1-c1ccc(OCC(=O)N2CCNCC2)cc1)NN1CCOCC1 [Compound C5],
